Entries after “also recorded” stand apart in the source; their conditions may differ. Bridge positions count the residues as written; N and C are the ends. Ends that are not written are not given here.
Key:
Format in all cases: cell-based, human
hiPSC-CMs [1] = assay: Optical recording of action potential with genetically encoded voltage indicators (Varnam, Arclight); conditions: cells on CMM
Description: Cyto-calcium, Action potential and redox handling. Cytoplasmic calcium and redox status of iPSC-CMs using spinning disk confocal microscope (Olympus/Andor Revolution XD) was monitored. 3rd gen. lentiviral probes using ViraPower™ Lentiviral mix was generated and transduced iPSC-CMs using MOI 5 (multiplicity of infection) that generated good signal to noise ratio. Cytoplasmic targeted roGFP-Grx1 probes(Gutscher et al., 2008), Calcium probe (genetically encoded Ca^2+ indicators (GECIs)-GCamP6f(Hubbi et al., 2013), Arclight(Jin et al., 2012) and Varnam(Kannan et al., 2018) were obtained from Addgene and transferred to pENTR™/SD/D-TOPO® vector using PCR. The vector was sequence verified and then transferred to pLEX_307 vector (Addgene plasmid #41392) that contains the EFlα promoter using the LR reaction. […] The virus was generated for each probe in HEK293-FT cells using an optimized mix of three packaging plasmids (pLP1, pLP2, and pLP/VSVG). The virus was concentrated using PEG-it™ Virus Precipitation Solution (SBI biosciences) that also removes HEK293-FT cell medium.
To monitor the florescence signal from cells transduced with probes, cells were plated at a density of 200,000 per cm^2 on cultured surfaces for at least 10-15 days prior to imaging, to achieve cell-cell coupling. […]
Florescence from cells (transduced with probes) was collected separately at a […] using an electron-multiplying charge-coupled device (EMCCD) camera using Andor Revolution X1 Spinning Disk confocal inverted microscope. […] ROS (roGFP2-Grx) probes were excited with 405 nm and 488 nm laser and emission was detected using bandpass filter of 500 nm-554 nm. […] Recovery of glutathione pool was monitored for 180-240 sec before the utilization of diamide (oxidized) and DTT (reduced) to obtain min and max signal. […] Cells transduced with cytoplasmic GCamp6f were excited at 488 nm and emission was detected using bandpass filter of 500 nm-554 nm. […] The data was analyzed using image J (NIH).

hiPSC-CMs [2] = assay: Sarcoplasmic reticulum calcium content, caffeine-induced Ca2+ release, Fura2 imaging; conditions: 10 mM
Method: To investigate calcium content of the sarcoplasmic reticulum (SR), Fura2 (ThermoFisher 3 uM) loaded cells were perfused with caffeine. Cells were initially perfused with modified Tyrode solution at 37C (pH 7.4) containing (in mM) 130 NaCl, 5 KCl, 1 MgCl2, 1.2 CaCl2, 20 Na-HEPES, 10 glucose, 1 pyruvate, 0.1% fatty acid free-BSA. After pacing the cells at 0.5 Hz for 30-40 sec, cells were perfused with the modified Tyrode buffer containing caffeine (10 mM). Images were analyzed using image J (NIH). Line plots (trace plots) were generated for both action potential and calcium transients by calculating average intensity (and standard deviation) from 3 biological batches with >100 cells for each timepoint and plotting it against the time (using R).

hiPSC-CMs [3] = assay: Acute pathological hypertrophy model (endothelin-1 treatment), functional evaluation; conditions: for effect on FAO / effect on OxPhos / effect on glycolysis: 10 nM, 48 hrs
Method: Human iPSC culture and cardiac differentiation. Human iPSCs (WTC-11) were cultured using chemically defined medium and published protocols (Burridge et al., 2014; Tohyama et al., 2013). Undifferentiated iPSCs were seeded (125,000 cells per cm^2) on Geltrex (ThermoScientific)-coated six-well plates and maintained in E8 medium (Life Technologies) for 4 days when they reached 80-85% confluence. Medium was then changed to cardiac differentiation medium (CDM), consisting of RPMI 1640 medium (11875, ThermoScientific), 500 μg/ml O. sativa—derived recombinant human albumin (A9731, Sigma-Aldrich), and 220 μg/ml L-ascorbic acid (A4544-Sigma-Aldrich), containing B27 supplement-insulin free (A1895601 ThermoScientific) to initiate differentiation. On d0-d2, medium was supplemented with 6 μM CHIR99021 (LC Laboratories) for induction of mesoderm. On d4-d5, medium was supplemented with 10 uM IWR (Selleck Chemicals) for cardiac differentiation. Contracting cells are typically noted, starting on d7-d8. To purify cardiac myocytes, a variant of RPMI 1640 medium without D-glucose (11879, Life Technologies) was supplemented with 4 mM sodium lactate (L4263, Sigma-Aldrich) for 2 days on day 10 of differentiation followed by culture in cardiac media, containing B-27™ Supplement with insulin (17504001, ThermoScientific) in CDM medium (Tohyama et al., 2013). Cells were dissociated on d13-d14 using TrypLE (ThermoScientific) and plated/cultured on either flat/anisotropic cell culture surfaces for 15-16 further days (d30 for flat and CMM) or 45 days (d60 for flat culture surface) in cardiac culture media. Cardiac culture media was used in all the conditions from day 13-d14 onwards, and it was composed of RPMI-1640, lipid-enhanced Cellastium S, 220 μg/ml L-ascorbic acid and B27 with insulin. Control flat tissue-culture surfaces were coated with fibronectin at a concentration of 4 μg/cm^2. For hypertrophy induction, day 30 differentiated cells were treated with 10 nM endothelin 1 (E7764 Millipore Sigma) for 48 hrs in cardiac culture media.
Mitochondrial respiration. Cellular energetics was monitored using the Seahorse Bioscience XF instrument in intact cells (non-permeabilized cells) and permeabilized cells(Afzal et al., 2017; Salabei et al., 2014). Intact cell respiration was monitored to evaluate the contribution of oxidative phosphorylation versus glycolysis, whereas permeabilized cell respiration was used to monitor electron transport chain (ETC) complex function/activity using ETC complex specific substrates and fatty acid oxidation.
For permeabilized cell respiration, iPSC-CMs were permeabilized using […] of Seahorse XF Plasma Membrane Permeabilizer (Part #102504-100). In permeabilized cells only OCR is measured. Mitochondria respiration were assayed using Buffer (pH 7.2) containing 137 mM KCl, 2 mM KH2PO4, 0.5 mM EGTA, 2.4 mM MgCl2, 20 mM HEPES with 0.2% fatty acid-free BSA (Sigma). Respiration rates were normalized to the protein concentration using BCA assay. Complex I respiration were evaluated by 5 mM glutamate and 5 mM malate (G/M) to evaluate State 4 respiration; 4 mM ADP was then injected to evaluate State 3 respiration. Maximal respiratory capacity (uncoupled mitochondria) was measured by injecting […]. Coupling of Electron Transport Chain respiration to ATP synthesis were evaluated using the ATP synthase inhibitor oligomycin (4 uM). Complex II respiration were measured using 5 mM succinate. Fatty acid oxidation was measured by injecting 200 uM of Palmitoyl-1-carnitine chloride/2.5 mM Malate and assessing the increase in OCR.
Florescence from cells (transduced with probes) was collected separately at a […] using an electron-multiplying charge-coupled device (EMCCD) camera using Andor Revolution X1 Spinning Disk confocal inverted microscope. Data was acquired with 2×2 pixel binning. ROS (roGFP2-Grx) probes were excited with 405 nm and 488 nm laser and emission was detected using bandpass filter of 500 nm-554 nm. […]

Compound: CN(CCOc1ccc(NS(C)(=O)=O)cc1)CCc1ccc(NS(C)(=O)=O)cc1 [Dofetilide]
- tolerance of cells to 10 nM dose (hiPSC-CMs [1]; 10 nM): fail to tolerate
- effect on action potential (hiPSC-CMs [1]; Dofetilide IKr 3 nM): AP prolongation and early after depolarization (EAD); also recorded: appearance of EAD and APD prolongation

Compound: CCN(CC)CC(=O)Nc1c(C)cccc1C [Lidocaine]
- reduction of beat frequency (hiPSC-CMs [1]; Lidocaine INa 100 um, 2 biological batches, n=30): ~40%

Compound: Cn1c(=O)c2c(ncn2C)n(C)c1=O [caffeine]
- calcium amplitude following caffeine exposure (SR load) (hiPSC-CMs [2]; cells matured on CMM): significant increase in amplitude
- calcium release from SR following caffeine exposure (hiPSC-CMs [2]; d30 cells): failed to demonstrate the calcium release

Compound: endothelin 1 (CSCSSLMDKECVYFCHLDIIW; disulfide 1-15, 3-11; ends not checked; UniProt P05305 53-73, looked up) [ET-1, pathological hypertrophy stimulus (E7764 Millipore Sigma)]
- effect on action potential duration (hiPSC-CMs [3]; both d30 and CMM): increase
- effect on beating frequency (hiPSC-CMs [3]; both d30 and CMM): decrease
- effect on Ca2+ peak amplitude (hiPSC-CMs [3]; cells on CMM): no significant effect
- effect on oxidative stress handling (roGFP2 after H2O2) (hiPSC-CMs [3]; cells on CMM): unperturbed
- effect on FAO (hiPSC-CMs [3]; cells on CMM): reduction
- effect on OxPhos (hiPSC-CMs [3]; cells on CMM): no effect
- effect on glycolysis (hiPSC-CMs [3]; cells on CMM): slight increase
- effect on respiratory control ratio (state 3/state 4) (hiPSC-CMs [3]; cells on CMM, acute treatment): not affected
- effect on Ca2+ peak amplitude (hiPSC-CMs [3]; d30 cells): increase in peak amplitude
- effect on oxidative stress handling (roGFP2 after H2O2) (hiPSC-CMs [3]; d30 cells): reduced oxidative stress handling
- effect on FAO (hiPSC-CMs [3]; d30 cells): increase
- effect on OxPhos (hiPSC-CMs [3]; d30 cells): significantly increased
- effect on glycolysis (hiPSC-CMs [3]; d30 cells): significantly increased
